Measured values reported in EP4782453A1 (Beyang Therapeutics Co., Ltd., priority 2023, dated 2025).

What was measured:
[1] = test system: MEIS1 gene expression; assay: Inhibition of MEIS1 gene expression in human tumor cells (qRT-PCR), MOLM-13; assay type: cell-based; conditions: MOLM-13 (carrying MLL-AF9), 48 hours of incubation, relative MEIS1 gene expression vs GAPDH
Procedure, shortened: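 MV-4-11 (MLL-AF4; IMDM, 10% FBS), MOLM-13 (MLL-AF9) and OCI-AML3 (NPM1c) (RPMI-1640, 20% FBS) seeded at 100,000 cells/well and treated 48 h with serially diluted compound. MEIS1 mRNA measured by one-step probe qRT-PCR from total RNA, triplicates, GAPDH primer/probe included; EC50 for inhibition of relative MEIS1 expression.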

[2] = test system: MOLM-13 (carrying MLL-AF9); assay: Inhibition of proliferation of human tumor cells (Alamar Blue, 7 days), MOLM-13; assay type: cell-based; conditions: Homo sapiens, 168 h, MOLM-13 cells (carrying MLL-AF9), method calls the value GI50
Procedure, shortened: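 Cells seeded at 4,000/well (MV-4-11, MOLM-13) or 3,000/well (KG-1a), treated in duplicate with serial compound dilutions for 7 days at 37°C, 5% CO2. Alamar Blue fluorescence read on Day 7, normalised to 0.1% DMSO Day-7 (high) and Day-0 (low) controls; GI50 derived.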

| SMILES | EC50 [1] [nM] | IC50 [2] [nM] |
| --- | --- | --- |
| CCN(C(=O)c1cc(F)ccc1-c1cc(C2CN([C@H](CCCN3C4COCC3C4)C(C)C)C2)cn2c(C)ncc12)C(C)C [Example 423] | 2.3 | 2.7 |
| CCS(=O)(=O)N[C@H]1CC[C@H](CN2CC(c3cc(-c4ccc(F)cc4C(=O)N4CCOC[C@H]4C)c4cnc(C)n4c3)C2)CC1 [Example 134, N-[(1r,4r)-4-{[3-(8-{4-fluoro-2-[(3R)-3-methylmorpholin-4-carbonyl]phenyl}-3-methylimidazo[1,5-a]pyridin-6-yl)azacyclobutan-1-yl]methyl}cyclohexyl]ethan-1-sulfonamide] | 53 | 21 |
| Cc1nc(F)c2c(-c3ccc(F)cc3C(=O)N3CCOC[C@H]3C)cc(C3CN([C@H](CCCN4CCN(C)CC4)C(C)C)C3)cn12 [Example 275, (3R)-4-[5-fluoro-2-(1-fluoro-3-methyl-6-{1-[(3R)-2-methyl-6-(4-methylpiperazin-1-yl)hexan-3-yl]azacyclobutan-3-yl}imidazo[1,5-a]pyridin-8-yl)benzoyl]-3-methylmorpholine] | 7.7 | 9.4 |

Other lines, results leading:

| EC50 [1] [nM] | IC50 [2] [nM] | SMILES |
| --- | --- | --- |
| 12 | 36 | Cc1nc(F)c2c(-c3ccc(F)cc3C(=O)N3CCOC[C@H]3C)cc(C3CN([C@H](CO[C@@H]4CCCN(C)C4)C(C)C)C3)cn12 [Example 297-1, (3R)-4-[5-fluoro-2-(1-fluoro-3-methyl-6-{1-[(2S)-3-methyl-1-{[(3R)-1-methylpiperidin-3-yl]oxy}butan-2-yl]azacyclobutan-3-yl}imidazo[1,5-a]pyridin-8yl)benzoyl]-3-methylmorpholine] |
| 4.3 | 11.2 | COC1CCN(CCC[C@H](C(C)C)N2CC(c3cc(-c4ccc(F)cc4C(=O)N4CCOC[C@H]4C)c4c(F)nc(C)n4c3)C2)CC1 [Example 204, (3R)-4-[5-fluoro-2-(1-fluoro-6-{1-[(3R)-6-(4-methoxypiperidin-1-yl)-2-methylhexan-3-yl]azacyclobutan-3-yl}-3-methylimidazo[1,5-a]pyridin-8-yl)benzoyl]-3-methylmorpholine] |
| 9.1 | 24 | Cc1nc(F)c2c(-c3ccc(F)cc3C(=O)N3CCOC[C@H]3C)cc(C3CN([C@H](CCCN4CCC[C@H](O)C4)C(C)C)C3)cn12 [Example 293] |
